Read-outs that look alike come from different tables or passages of the source.
Legend:
[1] = tested on: carrageenan paw-induced thermal hyperalgesia; assay: Carrageenan Paw-induced Thermal Hyperalgesia; type: in vivo, mice or rats; details: read-out: % Recovery; for inhibition in vivo at 30 mg/kg: 30 mg/kg po
human VR1 [2] = target: T1, human VR1 (Homo sapiens, UniProt Q8NER1); assay: Human VR1 [3H] RTX binding assay; details: for Ki: hVR1; for inhibition at 1 µM: compound at 1 μM
T1 construct: expressed in transfected cells; host or cells: HEK293
Summary of the method: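 Membranes from HEK293 cells transfected with human VR1, about 120 μg protein/ml, incubated with [3H] RTX in HEPES buffer pH 7.4 with 0.25 mg/mL fatty acid-free BSA for 60 min at 37° C. Bound radioactivity measured by scintillation counting. Non-specific binding defined with 200 nM unlabeled RTX.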

human VR1 [3] = target: T1, human VR1; assay: Human VR1 functional assay (intracellular Ca++, FLIPR, capsaicin challenge); type: cell-based
Method: The functional activity of the test compounds was determined by measuring changes in intracellular calcium concentration using a Ca^++-sensitive fluorescent dye and FLIPR™ technology.
EC50 or IC50 values were determined from dose-response studies.

[4] = 3H-RTX binding, read-out: 3H-RTX binding assay Ki hVR1
[5] = FLIPR functional assay IC50 hVR1 60 min, 60 min
[6] = hVR1, capsaicin challenge, read-out: FLIPR functional assay IC50 hVR1

T1 sequence (Q8NER1 whole entry): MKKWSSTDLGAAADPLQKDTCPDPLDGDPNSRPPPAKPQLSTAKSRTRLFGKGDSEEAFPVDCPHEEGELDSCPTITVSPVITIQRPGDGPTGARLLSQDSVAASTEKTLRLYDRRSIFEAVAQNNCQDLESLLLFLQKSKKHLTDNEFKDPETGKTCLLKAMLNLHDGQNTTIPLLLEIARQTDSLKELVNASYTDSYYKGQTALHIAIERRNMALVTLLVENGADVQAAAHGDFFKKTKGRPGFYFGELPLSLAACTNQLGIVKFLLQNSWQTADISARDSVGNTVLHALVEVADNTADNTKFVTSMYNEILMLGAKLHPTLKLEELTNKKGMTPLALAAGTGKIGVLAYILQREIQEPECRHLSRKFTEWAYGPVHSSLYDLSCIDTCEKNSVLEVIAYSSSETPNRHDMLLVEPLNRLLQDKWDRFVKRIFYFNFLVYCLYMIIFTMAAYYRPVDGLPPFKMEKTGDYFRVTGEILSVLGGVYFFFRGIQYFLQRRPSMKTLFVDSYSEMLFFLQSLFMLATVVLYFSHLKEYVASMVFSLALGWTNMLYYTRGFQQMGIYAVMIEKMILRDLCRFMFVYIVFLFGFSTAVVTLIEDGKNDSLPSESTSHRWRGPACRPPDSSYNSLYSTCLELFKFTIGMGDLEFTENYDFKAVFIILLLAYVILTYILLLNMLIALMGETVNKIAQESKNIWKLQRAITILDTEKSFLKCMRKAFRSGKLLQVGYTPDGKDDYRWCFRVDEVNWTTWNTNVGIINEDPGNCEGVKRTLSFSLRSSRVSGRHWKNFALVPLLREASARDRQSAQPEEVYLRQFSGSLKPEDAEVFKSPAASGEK

Row | Structure (SMILES) | Ki (human VR1 [2]; [4]) [nM] | IC50 (human VR1 [3]; [5]) [nM] | IC50 (human VR1 [3]; [6]) [nM] | inhibition at 1 µM (human VR1 [2]; 3H-RTX binding) [%] | also measured
1 | CCC(C)(C)c1ccc(CCC(=O)Nc2cnc3ccccc3c2)cc1 [Example 14, 3-[4-(1,1-Dimethyl-propyl)-phenyl]-N-quinolin-3-yl-propionamide] | 5.24 | 30 | 36.7 |  | inhibition in vivo at 30 mg/kg [1]: 47%
2 | CC(C)(C)c1ccc(C=CC(=O)Nc2cnc3ccccc3c2Cl)cc1 [Example 82, 3-(4-tert-Butyl-phenyl)-N-(4-chloro-quinolin-3-yl)-acrylamide] |  |  |  |  | inhibition in vivo at 10 mg/kg ([1]; 10 mg/kg po): 70%
3 | O=C(Nc1cnc2ccccc2c1)c1ccc(N2CCC(Cc3ccccc3)CC2)cc1 [Example 180, 4-(4-Benzyl-piperidin-1-yl)-N-quinolin-3-yl-benzamide] | 17.6 | 357 |  | 99 | inhibition in vivo at 10 mg/kg ([1]; 10 mg/kg po): 64%
4 | CCCCCN1CCc2cc(C(=O)Nc3cnc4ccccc4c3)ccc21 [Example 227, 1-Pentyl-2,3-dihydro-1H-indole-5-carboxylic acid quinolin-3-ylamide] | 24.1 | 106 | 84 | 98 | inhibition in vivo at 10 mg/kg ([1]; 10 mg/kg po): 52%
5 | CCCCCN(C)c1ccc(CCC(=O)Nc2cnc3ccccc3c2)cc1 [Example 37, 3-[4-(Methyl-pentyl-amino)-phenyl]-N-quinolin-3-yl-propionamide] | 178 | 190 | 1100 |  | inhibition in vivo at 30 mg/kg [1]: 58%
6 | O=C(C=Cc1ccc(Cl)c(C(F)(F)F)c1)Nc1cnc2ccccc2c1 [Example 56, 3-(4-Chloro-3-trifluoromethyl-phenyl)-N-quinolin-3-yl-acrylamide] |  |  |  |  | inhibition in vivo at 10 mg/kg ([1]; 10 mg/kg po): 58%
7 | CCCCCN(C)c1ccc(C(=O)Nc2cnc3ccccc3c2)cc1 [Example 154, 4-(Methyl-pentyl-amino)-N-quinolin-3-yl-benzamide] |  |  |  |  | inhibition in vivo at 10 mg/kg ([1]; 10 mg/kg sc): 83%
8 | CCN(c1ccc(C(=O)Nc2cnc3ccccc3c2)cc1)C1CCCCC1 [4-(Cyclohexyl-ethyl-amino)-N-quinolin-3-yl-benzamide] | 12.6 |  | 300 |  | 
9 | CCCCCc1ccc(C(=O)Nc2cnc3ccccc3c2)s1 [5-Pentyl-thiophene-2-carboxylic acid quinolin-3-ylamide] | 647 |  | 900 | 57 | 
10 | CCCN1CCc2cc(CCC(=O)Nc3cnc4ccccc4c3)ccc21 [3-(1-Propyl-2,3-dihydro-1H-indol-5-yl)-N-quinolin-3-yl-propionamide] | 1070 |  | 1060 | 51 | 
11 | CN(CCc1ccccc1)c1ccc(CCC(=O)Nc2cnc3ccccc3c2)cc1 [3-[4-(Methyl-phenethyl-amino)-phenyl]-N-quinolin-3-yl-propionamide] | 192 |  | 180 | 90 | 
12 | O=C(Nc1cnc2ccccc2c1)c1ccc(NC2CCCC2)cc1 [4-Cyclopentylamino-N-quinolin-3-yl-benzamide] |  |  | 3200 | 32 | 
13 | CN(CCc1ccccc1)c1ccc(C(=O)Nc2cnc3ccccc3c2)cn1 [6-(Methyl-phenethyl-amino)-N-quinolin-3-yl-nicotinamide] | 243 | 540 | 1200 | 97 | 
14 | CCCCCN(CCCCC)c1cccc(C(=O)Nc2cnc3ccccc3c2)c1 [3-Dipentylamino-N-quinolin-3-yl-benzamide] | 107 | 260 |  | 93 | 
15 | CCCN(c1ccc(C(=O)Nc2cnc3ccccc3c2)cc1)C1CCCCC1 [4-(Cyclohexyl-propyl-amino)-N-quinolin-3-yl-benzamide] | 84.6 |  | 10000 |  | 
16 | Cc1cc(C(=O)Nc2cnc3ccccc3c2)ccc1N(C)C1CCCCC1 [4-(Cyclohexyl-methyl-amino)-3-methyl-N-quinolin-3-yl-benzamide] | 22 | 23 | 560 |  | 
17 | CC(C)=CCC[C@H](C)CCN(C)c1ccc(C(=O)Nc2cnc3ccccc3c2)cc1 | 12.9 | 150 |  | 105 | 
18 | CC1CC(C)CN(c2ccc(C(=O)Nc3cnc4ccccc4c3)cc2)C1 (centres unmarked) [4-(3,5-Dimethyl-piperidin-1-yl)-N-quinolin-3-yl-benzamide] | 86.1 |  | 1800 | 91 | 
19 | CCCCC(C)(C)c1ccc(CCCC(=O)Nc2cnc3ccccc3c2)cc1 [4-{4-(1,1-Dimethyl-pentyl)-phenyl}-N-quinolin-3-yl-butyramide] | 221 |  | 10000 | 82 | 
20 | CCC(C)(C)c1ccc(C=CCC(=O)Nc2cnc3ccccc3c2)cc1 [4-{4-(1,1-Dimethyl-propyl)-phenyl}-but-3-enoic acid quinolin-3-ylamide] | 137 |  | 10000 | 55 | 
21 | CC(=O)N1CCc2cc(C(=O)Nc3cnc4ccccc4c3)ccc21 [1-Acetyl-2,3-dihydro-1H-indole-5-carboxylic acid quinolin-3-ylamide] |  |  | 3150 | 1 | 
22 | CN(c1ccc(CCC(=O)Nc2cnc3ccccc3c2)cc1)C1CCCCC1 [3-{4-(Cyclohexyl-methyl-amino)-phenyl}-N-quinolin-3-yl-propionamide] | 1170 |  | 3900 | 51 | 
23 | O=C(Nc1cnc2ccccc2c1)c1ccc(N2CC3CCCC(C3)C2)nc1 [6-(3-Aza-bicyclo{3.3.1}non-3-yl)-N-quinolin-3-yl-nicotinamide] | 9.86 | 279 | 3700 | 80 | 
24 | CCCCCn1ccc2cc(C(=O)Nc3cnc4ccccc4c3)ccc21 [1-Pentyl-1H-indole-5-carboxylic acid quinolin-3-ylamide] |  | 150 |  | 95 | Ki (human VR1 [2]; 3H-RTX binding assay Ki hVR1, 3H-RTX binding): 63.1 nM
25 | Cc1ccc(C(C)CCN(C)c2ccc(C(=O)Nc3cnc4ccccc4c3)cc2)o1 (centres unmarked) [4-{Methyl-{3-(5-methyl-furan-2-yl)-butyl}-amino}-N-quinolin-3-yl-benzamide] | 31.2 |  | 1500 | 102 | 
26 | CCCCCc1ccc(CCC(=O)Nc2cnc3ccccc3c2)cc1 [3-(4-Pentyl-phenyl)-N-quinolin-3-yl-propionamide] | 181 | 590 |  |  | 
27 | CN(CC1CCCCC1)c1ccc(CCC(=O)Nc2cnc3ccccc3c2)cc1 [Example 35, 3-[4-(Cyclohexylmethyl-methyl-amino)-phenyl]-N-quinolin-3-yl-propionamide] | 81.5 | 390 | 260 |  | inhibition in vivo at 20 mg/kg ([1]; 20 mg/kg po): 87%
28 | CCCN(CCC)c1ccc(C(=O)Nc2cnc3ccccc3c2)cc1 [4-Dipropylamino-N-quinolin-3-yl-benzamide] | 219 | 166 | 610 |  | 
29 | CN(CCc1ccccc1)c1ccc(C(=O)Nc2cnc3ccccc3c2)cc1 [Example 89, 4-(Methyl-phenethyl-amino)-N-quinolin-3-yl-benzamide] | 27.3 | 72 | 1900 | 102 | inhibition in vivo at 10 mg/kg ([1]; 10 mg/kg po): 42%
